{"source": "ChEMBL document CHEMBL5113448", "about": "“Synthesis and biological evaluation of 4H-benzo[e][1,3]oxazin-4-ones analogues of TGX-221 as inhibitors of PI3Kβ” (Bioorg Med Chem, 2022)", "data": [{"target": "Phosphatidylinositol 4,5-bisphosphate 3-kinase catalytic subunit beta isoform (Homo sapiens, UniProt P42338)", "sequence (P42338 whole entry, canonical isoform)": "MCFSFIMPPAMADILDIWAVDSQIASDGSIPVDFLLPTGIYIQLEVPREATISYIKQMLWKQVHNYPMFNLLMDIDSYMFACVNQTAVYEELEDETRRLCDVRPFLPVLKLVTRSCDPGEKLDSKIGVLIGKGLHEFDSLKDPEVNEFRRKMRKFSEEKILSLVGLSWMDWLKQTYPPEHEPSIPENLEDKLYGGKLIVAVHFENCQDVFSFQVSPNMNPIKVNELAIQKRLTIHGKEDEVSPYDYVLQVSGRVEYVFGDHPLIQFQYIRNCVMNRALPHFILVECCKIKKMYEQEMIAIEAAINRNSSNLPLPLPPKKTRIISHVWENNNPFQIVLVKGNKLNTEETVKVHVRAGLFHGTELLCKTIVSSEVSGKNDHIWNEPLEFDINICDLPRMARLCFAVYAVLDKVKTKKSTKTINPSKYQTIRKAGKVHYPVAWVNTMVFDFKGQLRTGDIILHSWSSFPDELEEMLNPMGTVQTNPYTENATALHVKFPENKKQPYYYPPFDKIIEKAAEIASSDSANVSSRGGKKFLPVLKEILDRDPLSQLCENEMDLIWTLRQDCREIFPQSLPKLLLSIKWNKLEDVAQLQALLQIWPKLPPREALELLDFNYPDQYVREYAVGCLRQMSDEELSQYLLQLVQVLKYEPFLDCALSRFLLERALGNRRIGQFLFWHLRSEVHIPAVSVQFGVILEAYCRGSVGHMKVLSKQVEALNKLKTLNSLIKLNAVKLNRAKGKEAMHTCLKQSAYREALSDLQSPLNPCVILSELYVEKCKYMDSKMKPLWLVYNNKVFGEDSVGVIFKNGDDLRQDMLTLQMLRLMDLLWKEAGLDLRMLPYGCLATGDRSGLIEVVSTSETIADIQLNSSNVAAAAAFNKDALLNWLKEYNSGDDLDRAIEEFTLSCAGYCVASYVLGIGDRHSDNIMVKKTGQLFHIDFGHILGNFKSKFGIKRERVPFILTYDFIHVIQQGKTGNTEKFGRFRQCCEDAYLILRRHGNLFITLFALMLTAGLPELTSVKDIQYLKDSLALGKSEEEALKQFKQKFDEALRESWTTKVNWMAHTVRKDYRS", "assay": "Inhibition of PI3Kbeta (unknown origin) incubated for 60 mins in the presence of ATP by Kinase-Glo luminescence assay", "units": {"IC50": "nM"}, "values": [{"molecule": "Cc1cc(C(C)Oc2cc(C)c(Cl)c(C)c2)c2oc(N3CCOCC3)nc(=O)c2c1", "note": "(stereo unspecified)", "IC50": "> 20000"}, {"molecule": "COc1cccc(OC(C)c2cc(C)cc3c(=O)nc(N4CCOCC4)oc23)c1", "note": "(stereo unspecified)", "IC50": 1880}, {"molecule": "Cc1cc(C(C)Nc2ccccc2Cl)c2oc(N3CCOCC3)nc(=O)c2c1", "note": "(stereo unspecified)", "IC50": 136}, {"molecule": "Cc1ccc(OC(C)c2cc(C)cc3c(=O)nc(N4CCOCC4)oc23)cc1", "note": "(stereo unspecified)", "IC50": "> 20000"}, {"molecule": "Cc1cc(C(C)Nc2ccc(Br)cc2)c2oc(N3CCOCC3)nc(=O)c2c1", "note": "(stereo unspecified)", "IC50": 12600}, {"molecule": "Cc1cc(C(C)Nc2c(F)cccc2F)c2oc(N3CCOCC3)nc(=O)c2c1", "note": "(stereo unspecified)", "IC50": 1220}, {"molecule": "Cc1cc(C(C)Oc2ccccc2C)c2oc(N3CCOCC3)nc(=O)c2c1", "note": "(stereo unspecified)", "IC50": 227}, {"molecule": "Cc1cc(C(C)Nc2cccc3ccccc23)c2oc(N3CCOCC3)nc(=O)c2c1", "note": "(stereo unspecified)", "IC50": 49.2}, {"molecule": "Cc1cc(C(C)Oc2ccccc2)c2oc(N3CCOCC3)nc(=O)c2c1", "note": "(stereo unspecified)", "IC50": 1430}, {"molecule": "Cc1cc(C(C)Nc2ccccc2)c2oc(N3CCOCC3)nc(=O)c2c1", "note": "(stereo unspecified)", "IC50": 240}, {"molecule": "Cc1cc(C(C)Nc2cc(F)ccc2F)c2oc(N3CCOCC3)nc(=O)c2c1", "note": "(stereo unspecified)", "IC50": 70}, {"molecule": "Cc1cc(C(C)Nc2cc(F)cc(F)c2)c2oc(N3CCOCC3)nc(=O)c2c1", "note": "(stereo unspecified)", "IC50": 152}, {"molecule": "Cc1cc(C(C)Oc2ccc(Cl)c(C)c2)c2oc(N3CCOCC3)nc(=O)c2c1", "note": "(stereo unspecified)", "IC50": "> 20000"}, {"molecule": "Cc1cc(C(C)Nc2ccc(F)cc2F)c2oc(N3CCOCC3)nc(=O)c2c1", "note": "(stereo unspecified)", "IC50": 281}, {"molecule": "COc1ccc(OC(C)c2cc(C)cc3c(=O)nc(N4CCOCC4)oc23)cc1", "note": "(stereo unspecified)", "IC50": "> 20000"}, {"molecule": "Cc1cc(C(C)Nc2cccc(Cl)c2F)c2oc(N3CCOCC3)nc(=O)c2c1", "note": "(stereo unspecified)", "IC50": 272}, {"molecule": "Cc1cccc(OC(C)c2cc(C)cc3c(=O)nc(N4CCOCC4)oc23)c1", "note": "(stereo unspecified)", "IC50": 2440}, {"molecule": "Cc1cc(C(C)Nc2cccc(Cl)c2)c2oc(N3CCOCC3)nc(=O)c2c1", "note": "(stereo unspecified)", "IC50": 72.7}, {"molecule": "Cc1cc(C(C)Nc2ccc(F)c(F)c2)c2oc(N3CCOCC3)nc(=O)c2c1", "note": "(stereo unspecified)", "IC50": 62.7}]}, {"target": "T1, Phosphatidylinositol 4,5-bisphosphate 3-kinase catalytic subunit delta isoform (Homo sapiens) (UniProt O00329)", "T1 sequence (whole entry)": "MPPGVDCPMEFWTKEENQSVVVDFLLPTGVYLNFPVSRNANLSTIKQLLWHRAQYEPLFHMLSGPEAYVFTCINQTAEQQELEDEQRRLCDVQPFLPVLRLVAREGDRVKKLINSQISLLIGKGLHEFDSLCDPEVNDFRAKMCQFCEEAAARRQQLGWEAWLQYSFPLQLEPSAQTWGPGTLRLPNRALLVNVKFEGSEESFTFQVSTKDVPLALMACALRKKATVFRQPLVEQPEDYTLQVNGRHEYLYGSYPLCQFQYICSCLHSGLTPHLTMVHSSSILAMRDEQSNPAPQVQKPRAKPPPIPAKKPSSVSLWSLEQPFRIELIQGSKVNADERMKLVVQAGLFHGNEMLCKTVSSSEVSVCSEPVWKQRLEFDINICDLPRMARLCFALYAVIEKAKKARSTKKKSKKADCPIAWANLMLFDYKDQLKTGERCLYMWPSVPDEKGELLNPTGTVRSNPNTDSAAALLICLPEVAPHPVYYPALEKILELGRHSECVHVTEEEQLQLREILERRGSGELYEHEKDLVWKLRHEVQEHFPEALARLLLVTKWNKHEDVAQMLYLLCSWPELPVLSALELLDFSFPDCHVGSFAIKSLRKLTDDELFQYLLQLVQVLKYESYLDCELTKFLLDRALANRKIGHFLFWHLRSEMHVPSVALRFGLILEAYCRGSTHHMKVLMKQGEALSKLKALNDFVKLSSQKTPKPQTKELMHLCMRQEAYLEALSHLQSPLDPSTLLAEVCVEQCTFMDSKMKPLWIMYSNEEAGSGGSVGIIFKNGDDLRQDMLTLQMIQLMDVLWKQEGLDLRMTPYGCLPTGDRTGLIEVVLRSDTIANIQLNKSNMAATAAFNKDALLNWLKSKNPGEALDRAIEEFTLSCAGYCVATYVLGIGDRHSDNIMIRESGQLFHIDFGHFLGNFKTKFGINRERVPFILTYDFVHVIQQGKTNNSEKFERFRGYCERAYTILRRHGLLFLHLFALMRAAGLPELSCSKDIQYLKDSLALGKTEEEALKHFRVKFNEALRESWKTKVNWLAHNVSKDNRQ", "assay": "Inhibition of PI3Kdelta (unknown origin) at 10 uM relative to control", "units": {"inhibition": "%"}, "values": [{"molecule": "Cc1cc(C(C)Nc2ccccc2)c2oc(N3CCOCC3)nc(=O)c2c1", "note": "(stereo unspecified)", "inhibition": 87}]}, {"target": "DNA-dependent protein kinase catalytic subunit (Homo sapiens, UniProt P78527)", "sequence (P78527 whole entry)": "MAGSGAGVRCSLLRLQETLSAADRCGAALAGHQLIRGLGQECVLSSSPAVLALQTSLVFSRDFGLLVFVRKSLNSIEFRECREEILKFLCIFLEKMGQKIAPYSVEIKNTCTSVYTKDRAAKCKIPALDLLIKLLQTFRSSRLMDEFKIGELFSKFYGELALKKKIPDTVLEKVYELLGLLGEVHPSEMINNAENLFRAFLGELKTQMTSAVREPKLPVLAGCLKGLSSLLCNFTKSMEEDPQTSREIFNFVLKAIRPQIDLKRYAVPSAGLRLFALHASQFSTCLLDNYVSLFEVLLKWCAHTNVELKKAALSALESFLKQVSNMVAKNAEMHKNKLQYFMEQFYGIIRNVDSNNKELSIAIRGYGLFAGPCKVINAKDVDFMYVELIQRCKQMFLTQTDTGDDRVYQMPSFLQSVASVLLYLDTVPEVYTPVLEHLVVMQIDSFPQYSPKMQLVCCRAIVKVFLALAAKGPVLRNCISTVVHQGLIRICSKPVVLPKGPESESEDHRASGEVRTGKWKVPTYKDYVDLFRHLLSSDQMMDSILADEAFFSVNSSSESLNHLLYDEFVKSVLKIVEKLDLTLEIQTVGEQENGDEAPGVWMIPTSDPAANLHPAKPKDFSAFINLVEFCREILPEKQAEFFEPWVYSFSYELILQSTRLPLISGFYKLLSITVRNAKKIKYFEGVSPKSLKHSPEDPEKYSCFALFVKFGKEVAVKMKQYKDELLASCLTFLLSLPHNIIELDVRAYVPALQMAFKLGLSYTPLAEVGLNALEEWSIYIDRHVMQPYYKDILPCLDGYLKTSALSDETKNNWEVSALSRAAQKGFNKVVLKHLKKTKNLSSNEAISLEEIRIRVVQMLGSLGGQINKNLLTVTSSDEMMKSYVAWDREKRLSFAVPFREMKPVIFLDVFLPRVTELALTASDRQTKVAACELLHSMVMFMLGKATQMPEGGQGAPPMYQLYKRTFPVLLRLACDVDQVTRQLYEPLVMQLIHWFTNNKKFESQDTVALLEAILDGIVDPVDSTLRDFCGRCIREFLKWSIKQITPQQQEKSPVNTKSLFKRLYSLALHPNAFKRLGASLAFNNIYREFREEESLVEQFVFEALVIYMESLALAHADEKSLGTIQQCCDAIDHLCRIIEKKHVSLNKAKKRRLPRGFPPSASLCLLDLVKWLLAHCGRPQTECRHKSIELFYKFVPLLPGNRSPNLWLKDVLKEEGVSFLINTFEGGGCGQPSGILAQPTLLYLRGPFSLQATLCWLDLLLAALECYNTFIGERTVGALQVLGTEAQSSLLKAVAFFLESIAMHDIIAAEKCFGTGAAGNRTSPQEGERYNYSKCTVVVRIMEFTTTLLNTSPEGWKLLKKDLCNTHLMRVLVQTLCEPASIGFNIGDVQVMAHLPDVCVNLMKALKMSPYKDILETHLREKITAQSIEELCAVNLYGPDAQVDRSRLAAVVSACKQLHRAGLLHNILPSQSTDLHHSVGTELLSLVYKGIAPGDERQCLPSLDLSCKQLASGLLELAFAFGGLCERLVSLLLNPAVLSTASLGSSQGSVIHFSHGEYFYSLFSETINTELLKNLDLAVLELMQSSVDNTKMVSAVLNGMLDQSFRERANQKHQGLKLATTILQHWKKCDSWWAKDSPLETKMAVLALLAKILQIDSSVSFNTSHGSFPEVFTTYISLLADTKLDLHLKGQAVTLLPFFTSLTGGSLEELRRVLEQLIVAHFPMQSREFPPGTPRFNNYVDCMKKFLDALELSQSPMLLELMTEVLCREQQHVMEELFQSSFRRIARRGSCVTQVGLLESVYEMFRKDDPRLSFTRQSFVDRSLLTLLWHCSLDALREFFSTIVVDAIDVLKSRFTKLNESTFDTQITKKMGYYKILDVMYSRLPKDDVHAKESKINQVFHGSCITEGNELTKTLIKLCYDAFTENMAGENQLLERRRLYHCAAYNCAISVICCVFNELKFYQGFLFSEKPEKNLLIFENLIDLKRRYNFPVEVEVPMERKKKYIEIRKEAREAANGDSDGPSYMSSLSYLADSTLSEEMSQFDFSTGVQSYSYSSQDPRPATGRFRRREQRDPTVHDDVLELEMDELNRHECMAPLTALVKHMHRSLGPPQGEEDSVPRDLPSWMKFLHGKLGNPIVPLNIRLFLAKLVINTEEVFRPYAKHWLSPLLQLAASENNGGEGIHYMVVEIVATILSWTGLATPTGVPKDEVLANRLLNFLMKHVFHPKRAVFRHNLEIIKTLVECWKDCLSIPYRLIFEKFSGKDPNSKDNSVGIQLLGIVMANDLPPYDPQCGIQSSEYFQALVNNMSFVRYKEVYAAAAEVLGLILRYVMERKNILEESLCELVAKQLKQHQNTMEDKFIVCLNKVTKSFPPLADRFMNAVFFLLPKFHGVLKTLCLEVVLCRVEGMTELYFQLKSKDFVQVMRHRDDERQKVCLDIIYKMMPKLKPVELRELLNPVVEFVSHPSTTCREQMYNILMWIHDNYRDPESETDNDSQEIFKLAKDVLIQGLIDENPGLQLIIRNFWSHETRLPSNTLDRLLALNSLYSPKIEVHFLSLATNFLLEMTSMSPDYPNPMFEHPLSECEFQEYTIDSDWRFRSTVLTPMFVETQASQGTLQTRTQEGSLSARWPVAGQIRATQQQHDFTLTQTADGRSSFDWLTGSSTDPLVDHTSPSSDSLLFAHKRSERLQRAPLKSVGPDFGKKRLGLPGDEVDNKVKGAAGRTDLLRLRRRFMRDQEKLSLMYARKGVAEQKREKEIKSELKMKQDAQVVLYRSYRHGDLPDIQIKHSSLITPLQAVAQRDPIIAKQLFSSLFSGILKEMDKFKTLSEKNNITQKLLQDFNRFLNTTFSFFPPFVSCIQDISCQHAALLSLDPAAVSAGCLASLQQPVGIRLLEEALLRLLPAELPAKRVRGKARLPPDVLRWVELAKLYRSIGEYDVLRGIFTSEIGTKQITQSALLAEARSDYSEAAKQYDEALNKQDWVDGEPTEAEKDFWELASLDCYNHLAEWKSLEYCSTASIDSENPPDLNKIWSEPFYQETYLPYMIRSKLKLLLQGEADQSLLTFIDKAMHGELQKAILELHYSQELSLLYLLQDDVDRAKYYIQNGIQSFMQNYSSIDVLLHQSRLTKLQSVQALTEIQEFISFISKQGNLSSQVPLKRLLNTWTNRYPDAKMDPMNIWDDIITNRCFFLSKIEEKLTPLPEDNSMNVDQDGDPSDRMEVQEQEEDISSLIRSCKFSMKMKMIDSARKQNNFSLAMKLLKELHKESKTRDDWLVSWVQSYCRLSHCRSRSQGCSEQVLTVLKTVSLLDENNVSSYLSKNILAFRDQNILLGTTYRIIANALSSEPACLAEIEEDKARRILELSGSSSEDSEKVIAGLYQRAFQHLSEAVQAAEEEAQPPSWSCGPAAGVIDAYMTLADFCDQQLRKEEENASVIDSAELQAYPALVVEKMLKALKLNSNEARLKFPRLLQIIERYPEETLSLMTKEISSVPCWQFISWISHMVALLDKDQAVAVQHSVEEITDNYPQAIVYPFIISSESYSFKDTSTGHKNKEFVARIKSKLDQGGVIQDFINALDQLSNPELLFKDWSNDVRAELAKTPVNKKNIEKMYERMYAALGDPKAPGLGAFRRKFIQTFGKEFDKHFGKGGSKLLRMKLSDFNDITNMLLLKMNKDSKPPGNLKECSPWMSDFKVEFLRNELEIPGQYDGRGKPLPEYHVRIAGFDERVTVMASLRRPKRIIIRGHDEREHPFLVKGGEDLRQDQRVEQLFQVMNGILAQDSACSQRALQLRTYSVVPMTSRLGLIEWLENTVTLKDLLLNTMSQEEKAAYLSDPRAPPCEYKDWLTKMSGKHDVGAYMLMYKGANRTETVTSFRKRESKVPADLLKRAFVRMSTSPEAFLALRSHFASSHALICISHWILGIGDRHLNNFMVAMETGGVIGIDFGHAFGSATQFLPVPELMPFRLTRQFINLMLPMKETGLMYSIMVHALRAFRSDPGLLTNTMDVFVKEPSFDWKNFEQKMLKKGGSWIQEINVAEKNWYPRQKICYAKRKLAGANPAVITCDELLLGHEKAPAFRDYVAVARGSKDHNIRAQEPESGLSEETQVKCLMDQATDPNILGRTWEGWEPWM", "assay": "Inhibition of DNA-PK (unknown origin) in the presence of ATP", "units": {"IC50": "nM"}, "values": [{"molecule": "Cc1cc(C(C)Nc2ccccc2)c2oc(N3CCOCC3)cc(=O)c2c1", "note": "(stereo unspecified)", "IC50": 120}]}]}
